# Assay results taken from patent US9617244B2, “Antibacterial quinoline derivatives” (JANSSEN PHARMACEUTICA NV, priority 2012, dated 2017).
# Test system: Staphylococcus aureus (ATCC29213)
# Experiment: In-vitro anti-bacterial activity, microtitre plate assay, IC90 determination (non-mycobacterial strains)
# Assay type: cell-based
# Settings: 90% inhibitory concentration for bacterial growth, 24 hours, resazurin fluorescence
# Outline: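 Inoculum of about 100 TCID50 (10–60 CFU/well) in Mueller-Hinton broth, serial five-fold compound dilutions, 24 h at 37 °C in air. Growth read by resazurin fluorescence (ex 530/em 590 nm); IC90 in μg/ml as 90% growth inhibition.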
row,IC90 STA B29213 [mg/L],Structure (SMILES)
1,3.49,COc1nc2ccc(Br)cc2cc1C(c1ccc(Cl)cc1)C1(O)CCNC(Cc2ccccn2)C1 (stereo not drawn) [Compound 381]
2,3.45,COc1nc2ccc(SC(C)C)cc2cc1C(c1ccc(Cl)cc1)C1(O)CCNC(Cc2ccccc2)C1 (stereo not drawn) [Compound 383]
3,3.45,COc1nc2ccc(SC(C)C)cc2cc1C(c1ccc(Cl)cc1)C1(O)CCNC(Cc2ccccc2)C1 (stereo not drawn) [Compound 384]
4,1.73,COc1nc2ccc(SC(C)C)cc2cc1C(c1ccc(Cl)cc1)C1(O)CCNC(Cc2ccccc2)C1 (stereo not drawn) [Compound 385]
5,>12.47,COc1nc2ccccc2cc1C(c1ccccc1)C1(O)CCNC(Cc2ccccc2)C1 (stereo not drawn) [Compound 400]
6,>12.77,COc1nc2ccccc2cc1C(c1ccccc1)C1(O)CCNC(Cc2ccccc2)C1 (stereo not drawn) [Compound 401]
7,>12.47,COc1nc2ccccc2cc1C(c1ccccc1)C1(O)CCNC(Cc2ccccc2)C1 (stereo not drawn) [Compound 402]
8,9.72,COc1nc2ccc(Cl)cc2cc1C(c1ccc(Cl)cc1)C1(O)CCNC(c2ccccc2)C1 (stereo not drawn) [Compound 403]
9,2.99,COc1nc2ccc(Cl)cc2cc1C(c1ccc(Cl)cc1)C1(O)CCNC(c2ccccc2)C1 (stereo not drawn) [Compound 404]
10,5.26,COc1nc2ccc(Cl)cc2cc1C(c1ccc(Cl)cc1)C1(O)CCNC(c2ccccc2)C1 (stereo not drawn) [Compound 405]
11,1.65,COc1nc2ccc(F)cc2cc1C(c1ccc(SC)cc1)C1(O)CCNC(c2ccc(F)cc2C)C1 (stereo not drawn) [Compound 407]
12,2.01,COc1nc2ccc(Cl)cc2cc1C(c1ccc(Cl)cc1)C1(O)CCNCC1c1ccccc1 (stereo not drawn) [Compound 409]
13,12.25,COc1nc2ccc(Cl)cc2cc1C(c1ccc(Cl)cc1)C1(O)CCNCC1c1ccccc1 (stereo not drawn) [Compound 410]
14,4.10,COc1nc2ccc(Cl)cc2cc1C(c1ccc(Cl)cc1)C1(O)CCNCC1c1ccccc1 (stereo not drawn) [Compound 411]
15,4.02,COc1nc2ccc(Cl)cc2cc1C(c1ccc(Cl)cc1)C1(O)CCNCC1c1ccccc1 (stereo not drawn) [Compound 412]
16,18.39,COc1nc2ccccc2cc1C(c1ccccc1)C1(O)CCNC(c2ccccc2)C1 (stereo not drawn) [Compound 414]
17,15.47,COc1nc2ccccc2cc1C(c1ccccc1)C1(O)CCNC(c2ccccc2)C1 (stereo not drawn) [Compound 415]
18,9.25,COc1nc2ccccc2cc1C(c1ccccc1)C1(O)CCNC(c2ccc(F)cc2C)C1 (stereo not drawn) [Compound 416]
19,>17.6721,COc1nc2ccc(F)cc2cc1C(c1ccc(S(C)(=O)=O)cc1)C1(O)CCNC(c2ccc(F)cc2C)C1 (stereo not drawn) [Compound 418]
20,5.43,COc1nc2ccc(Cl)cc2cc1C(c1ccc(Cl)cc1)C1(O)CCNCC1C (stereo not drawn) [Compound 421]
21,7.67,COc1nc2ccc(Cl)cc2cc1C(c1ccc(Cl)cc1)C1(O)CCNCC1C (stereo not drawn) [Compound 422]
22,15.06,COc1nc2ccc(Br)cc2cc1C(c1cccnc1)C1(O)CCNC(Cc2ccccc2)C1 (stereo not drawn) [Compound 428]
23,3.39,COc1nc2ccc(Cl)cc2cc1C(c1ccc(Cl)cc1)C1(O)CCNC(c2ccc3ccccc3c2)C1 (stereo not drawn) [Compound 430]
24,8.60,COc1nc2ccc(Cl)cc2cc1C(c1ccc(Cl)cc1)C1(O)CCNC(c2ccc3ccccc3c2)C1 (stereo not drawn) [Compound 431]
25,7.41,COc1nc2ccc(Cl)cc2cc1C(c1ccc(Cl)cc1)C1(O)CCNC(c2ccc3ccccc3c2)C1 (stereo not drawn) [Compound 432]
26,11.37,COc1nc2ccc(Cl)cc2cc1C(c1ccc(Cl)cc1)C1(O)CCNC(c2ccc3ccccc3c2)C1 (stereo not drawn) [Compound 442]
27,11.50,O=c1[nH]c2ccc(Cl)cc2cc1C(c1ccc(Cl)cc1)C1(O)CCNCC1F (stereo not drawn) [Compound 458]

# Test system: Mycobacterium smegmatis (ATCC607)
# Experiment: In-vitro anti-bacterial activity against strain M. Smegmatis ATCC607
# Assay type: cell-based
# Settings: 90% inhibitory concentration for bacterial growth, 48 hours, Alamar Blue fluorescence
# Outline: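 Serial five-fold compound dilutions in BSA-supplemented wells, inoculated with ~250 CFU/well in Mueller-Hinton broth, incubated 48 h at 37 °C, 5% CO2. Growth read by Alamar Blue fluorescence (ex 530/em 590 nm); IC90 in μg/ml.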
row,IC90 MSM 607 [mg/L],Structure (SMILES)
1,1.75,COc1nc2ccc(Br)cc2cc1C(c1ccc(Cl)cc1)C1(O)CCNC(Cc2ccccn2)C1 (stereo not drawn) [Compound 381]
2,2.74,COc1nc2ccc(SC(C)C)cc2cc1C(c1ccc(Cl)cc1)C1(O)CCNC(Cc2ccccc2)C1 (stereo not drawn) [Compound 383]
3,2.18,COc1nc2ccc(SC(C)C)cc2cc1C(c1ccc(Cl)cc1)C1(O)CCNC(Cc2ccccc2)C1 (stereo not drawn) [Compound 384]
4,1.37,COc1nc2ccc(SC(C)C)cc2cc1C(c1ccc(Cl)cc1)C1(O)CCNC(Cc2ccccc2)C1 (stereo not drawn) [Compound 385]
5,>12.47,COc1nc2ccccc2cc1C(c1ccccc1)C1(O)CCNC(Cc2ccccc2)C1 (stereo not drawn) [Compound 400]
6,>12.77,COc1nc2ccccc2cc1C(c1ccccc1)C1(O)CCNC(Cc2ccccc2)C1 (stereo not drawn) [Compound 401]
7,12.47,COc1nc2ccccc2cc1C(c1ccccc1)C1(O)CCNC(Cc2ccccc2)C1 (stereo not drawn) [Compound 402]
8,8.66,COc1nc2ccc(Cl)cc2cc1C(c1ccc(Cl)cc1)C1(O)CCNC(c2ccccc2)C1 (stereo not drawn) [Compound 403]
9,1.68,COc1nc2ccc(Cl)cc2cc1C(c1ccc(Cl)cc1)C1(O)CCNC(c2ccccc2)C1 (stereo not drawn) [Compound 404]
10,2.63,COc1nc2ccc(Cl)cc2cc1C(c1ccc(Cl)cc1)C1(O)CCNC(c2ccccc2)C1 (stereo not drawn) [Compound 405]
11,1.17,COc1nc2ccc(F)cc2cc1C(c1ccc(SC)cc1)C1(O)CCNC(c2ccc(F)cc2C)C1 (stereo not drawn) [Compound 407]
12,6.36,COc1nc2ccc(Cl)cc2cc1C(c1ccc(Cl)cc1)C1(O)CCNCC1c1ccccc1 (stereo not drawn) [Compound 409]
13,7.73,COc1nc2ccc(Cl)cc2cc1C(c1ccc(Cl)cc1)C1(O)CCNCC1c1ccccc1 (stereo not drawn) [Compound 410]
14,6.50,COc1nc2ccc(Cl)cc2cc1C(c1ccc(Cl)cc1)C1(O)CCNCC1c1ccccc1 (stereo not drawn) [Compound 411]
15,2.02,COc1nc2ccc(Cl)cc2cc1C(c1ccc(Cl)cc1)C1(O)CCNCC1c1ccccc1 (stereo not drawn) [Compound 412]
16,18.39,COc1nc2ccccc2cc1C(c1ccccc1)C1(O)CCNC(c2ccccc2)C1 (stereo not drawn) [Compound 414]
17,>15.47,COc1nc2ccccc2cc1C(c1ccccc1)C1(O)CCNC(c2ccccc2)C1 (stereo not drawn) [Compound 415]
18,9.25,COc1nc2ccccc2cc1C(c1ccccc1)C1(O)CCNC(c2ccc(F)cc2C)C1 (stereo not drawn) [Compound 416]
19,17.67,COc1nc2ccc(F)cc2cc1C(c1ccc(S(C)(=O)=O)cc1)C1(O)CCNC(c2ccc(F)cc2C)C1 (stereo not drawn) [Compound 418]
20,5.43,COc1nc2ccc(Cl)cc2cc1C(c1ccc(Cl)cc1)C1(O)CCNCC1C (stereo not drawn) [Compound 421]
21,8.61,COc1nc2ccc(Cl)cc2cc1C(c1ccc(Cl)cc1)C1(O)CCNCC1C (stereo not drawn) [Compound 422]
22,10.66,COc1nc2ccc(Br)cc2cc1C(c1cccnc1)C1(O)CCNC(Cc2ccccc2)C1 (stereo not drawn) [Compound 428]
23,3.39,COc1nc2ccc(Cl)cc2cc1C(c1ccc(Cl)cc1)C1(O)CCNC(c2ccc3ccccc3c2)C1 (stereo not drawn) [Compound 430]
24,7.66,COc1nc2ccc(Cl)cc2cc1C(c1ccc(Cl)cc1)C1(O)CCNC(c2ccc3ccccc3c2)C1 (stereo not drawn) [Compound 431]
25,5.24,COc1nc2ccc(Cl)cc2cc1C(c1ccc(Cl)cc1)C1(O)CCNC(c2ccc3ccccc3c2)C1 (stereo not drawn) [Compound 432]
26,3.60,COc1nc2ccc(Cl)cc2cc1C(c1ccc(Cl)cc1)C1(O)CCNC(c2ccc3ccccc3c2)C1 (stereo not drawn) [Compound 442]
27,11.50,O=c1[nH]c2ccc(Cl)cc2cc1C(c1ccc(Cl)cc1)C1(O)CCNCC1F (stereo not drawn) [Compound 458]
